Patent publication US20130035232A1, “INDUCTION AND STABILIZATION OF ENZYMATIC ACTIVITY IN MICROORGANISMS” (GEORGIA STATE UNIVERSITY RESEARCH FOUNDATION, INC., priority 2010, published 2013)
Each block holds one molecule with its values, some of them ahead of it.

Legend:
asparaginase I [1] = test: Asparaginase I production on supplemented medium; format: cell-based; settings: YEMEA, 7.5 g/L urea, 10 ppm cobalt
Procedure: The induction of asparaginase I production in various nitrile hydratase producing microorganisms was evaluated. All strains were grown on YEMEA medium containing 7.5 g/L of urea and 10 ppm cobalt (provided as cobalt chloride) supplemented with asparagine (ASN), glutamine (GLN), or both asparagine and glutamine. The asparagine and glutamine were added at a concentration of 3.8 mM. As a comparative, enzyme production was also evaluated with supplementation with acrylonitrile (AN), acrylamide (AMD) or acrylonitrile and acrylamide. Growth temperature was in the range of 26° C. to 30° C.

nitrile hydratase [2] = test: Nitrile hydratase induction by inducers (Example 1); format: cell-based, Rhodococcus sp., strain DAP 96253; settings: inducer 1000 ppm; for Nitrile Hydratase Activity: Rhodococcus sp. DAP 96253, YEMEA, 10 ppm cobalt, 7.5 g/L urea
Procedure: (§1) The induction of nitrile hydratase activity and amidase activity in Rhodococcus sp., strain DAP 96253, was evaluated using multiple types of inducers (1000 ppm). Three different samples were cultured in YEMEA medium containing 10 ppm cobalt and 7.5 g/L urea and supplemented with acrylonitrile, asparagine, or glutamine. The specific nitrile hydratase activity and the specific amidase activity in each sample was evaluated, and the results are provided below in Table 3, with activities provided in units/mg cdw (cell dry weight). One unit of nitrile hydratase activity relates to the ability to convert 1 μmol of acrylonitrile to its corresponding amide per minute, per milligram of cells (dry weight) at a pH of 7.0 and a temperature of 30° C. One unit of amidase activity relates to the ability to convert 1 μmol of acrylamide to its corresponding acid per minute, per milligram of cells (dry weight) pH of 7.0 and a temperature of 30° C.

amidase [3] = test: Amidase induction by inducers (Example 1); format: cell-based, Rhodococcus sp., strain DAP 96253; settings: for Amidase Activity: Rhodococcus sp. DAP 96253, YEMEA, 10 ppm cobalt, 7.5 g/L urea, inducer 1000 ppm
Procedure: as §1

[4] = test system: Brevibacterium ketoglutaricum ATCC 21533; test: Growth on supplemented YEMEA (visual grade); format: cell-based; parameters: key: (−) meaning no detectable growth; (+/−) meaning scant growth; (+) meaning little growth; (++) meaning good growth; (+++) meaning very good growth; (++++) meaning excellent growth; settings: 30 °C, 7.5 g/L urea, 10 ppm cobalt, supplement 3.8 mM
Procedure: (§2) The relative growth of various nitrile hydratase producing microorganisms was evaluated. All strains were grown on YEMEA medium containing 7.5 g/L of urea and 10 ppm cobalt (provided as cobalt chloride) supplemented with asparagine (ASN), glutamine (GLN), or both asparagine and glutamine. The asparagine and glutamine were added at a concentration of 3.8 mM. Growth temperature was in the range of 26° C. to 30° C. Growth was evaluated by visual inspection and graded on the following scale: (−) meaning no detectable growth; (+/−) meaning scant growth; (+) meaning little growth; (++) meaning good growth; (+++) meaning very good growth; and (++++) meaning excellent growth.

[5] = test system: Pseudomonas chloroaphis ATCC 13985; test: Growth on supplemented YEMEA (visual grade); format: cell-based; parameters: key: (−) meaning no detectable growth; (+/−) meaning scant growth; (+) meaning little growth; (++) meaning good growth; (+++) meaning very good growth; (++++) meaning excellent growth; settings: 26 °C, 7.5 g/L urea, 10 ppm cobalt, supplement 3.8 mM
Procedure: as §2

[6] = test system: Pseudomonas chloroaphis ATCC 43051; test: Growth on supplemented YEMEA (visual grade); format: cell-based; parameters: key: (−) meaning no detectable growth; (+/−) meaning scant growth; (+) meaning little growth; (++) meaning good growth; (+++) meaning very good growth; (++++) meaning excellent growth; settings: 30 °C, 7.5 g/L urea, 10 ppm cobalt, supplement 3.8 mM
Procedure: as §2

[7] = test system: Rhodococcus erythropolis ATCC 47072; test: Growth on supplemented YEMEA (visual grade); format: cell-based; parameters: key: (−) meaning no detectable growth; (+/−) meaning scant growth; (+) meaning little growth; (++) meaning good growth; (+++) meaning very good growth; (++++) meaning excellent growth; settings: 26 °C, 7.5 g/L urea, 10 ppm cobalt, supplement 3.8 mM
Procedure: as §2

[8] = test system: Rhodococcus rhodochrous DAP 96622 ATCC 55898; test: Growth on supplemented YEMEA (visual grade); format: cell-based; parameters: key: (−) meaning no detectable growth; (+/−) meaning scant growth; (+) meaning little growth; (++) meaning good growth; (+++) meaning very good growth; (++++) meaning excellent growth; settings: 26 °C, 7.5 g/L urea, 10 ppm cobalt, supplement 3.8 mM
Procedure: as §2

[9] = test system: Rhodococcus sp. DAP 96253 ATCC 55899; test: Growth on supplemented YEMEA (visual grade); format: cell-based; parameters: key: (−) meaning no detectable growth; (+/−) meaning scant growth; (+) meaning little growth; (++) meaning good growth; (+++) meaning very good growth; (++++) meaning excellent growth; settings: 30 °C, 7.5 g/L urea, 10 ppm cobalt, supplement 3.8 mM
Procedure: as §2

nitrile hydratase [10] = test: Nitrile hydratase production on supplemented medium; format: cell-based; settings: YEMEA, urea, cobalt, supplement 3.8 mM
Procedure: (§3) The induction of nitrile hydratase production and amidase production in various nitrile hydratase producing microorganisms was evaluated. All strains were grown on YEMEA medium containing 7.5 g/L of urea and 10 ppm cobalt (provided as cobalt chloride) supplemented with asparagine (ASN), glutamine (GLN), or both asparagine and glutamine. The asparagine and glutamine were added at a concentration of 3.8 mM. As a comparative, enzyme production with no supplementation was also tested. Growth temperature was in the range of 26° C. to 30° C.

amidase [11] = test: Amidase production on supplemented medium; format: cell-based; settings: YEMEA, urea, cobalt, supplement 3.8 mM
Procedure: as §3

asparaginase I [12] = test: Effect of inducer and media composition on asparaginase I production; format: cell-based, Rhodococcus sp. DAP 96253; settings: inducer 1000 ppm; for Asparaginase I levels, YEMEA - Glucose With Cobalt / Asparaginase I levels, YEMEA - Glucose Without Cobalt / Asparaginase I levels, YEMEA - Maltose With Cobalt / Asparaginase I levels, YEMEA - Maltose Without Cobalt: Rhodococcus sp. DAP 96253
Procedure: Testing was performed to evaluate the effect on asparaginase I activity based upon the inducer used. In particular, testing was performed using asparagine, glutamine, succinonitrile, and isovaleronitrile as inducers (all added at 1000 ppm each).

[13] = Brevibacterium ketoglutaricum ATCC 21533, 30 °C
[14] = Pseudomonas chloroaphis ATCC 13985, 26 °C
[15] = Rhodococcus erythropolis ATCC 47072, 26 °C
[16] = Rhodococcus rhodochrous DAP 96622 ATCC 55898, 26 °C
[17] = Rhodococcus sp. DAP 96253 ATCC 55899, 30 °C
[18] = Pseudomonas chloroaphis ATCC 43051, 30 °C

Compound: C=CC(N)=O [AMD, acrylamide, reference compound]
- Asparaginase I Level Based on Growth Medium Supplementation (asparaginase I [1]; [13]): 15.4 Units/mg cdw
- Asparaginase I Level Based on Growth Medium Supplementation (asparaginase I [1]; [14]): 0 Units/mg cdw
- Asparaginase I Level Based on Growth Medium Supplementation (asparaginase I [1]; [15]): 0 Units/mg cdw
- Asparaginase I Level Based on Growth Medium Supplementation (asparaginase I [1]; [16]): 7.8 Units/mg cdw
- Asparaginase I Level Based on Growth Medium Supplementation (asparaginase I [1]; [17]): 2 Units/mg cdw

Compound: C=CC#N [Acrylonitrile, acrylonitrile, reference compound]
- Nitrile Hydratase Activity (nitrile hydratase [2]): 162.23 Units/mg cdw
- Amidase Activity (amidase [3]): 7.59 Units/mg cdw
- Asparaginase I Level Based on Growth Medium Supplementation (asparaginase I [1]; [13]): 14.6 Units/mg cdw
- Asparaginase I Level Based on Growth Medium Supplementation (asparaginase I [1]; [14]): 2 Units/mg cdw
- Asparaginase I Level Based on Growth Medium Supplementation (asparaginase I [1]; [16]): 8.2 Units/mg cdw
- Asparaginase I Level Based on Growth Medium Supplementation (asparaginase I [1]; [17]): 7.8 Units/mg cdw

- Nitrile Hydratase Level Based on Growth Medium Supplementation (nitrile hydratase [10]; [18]): No
- Amidase Level Based on Growth Medium Supplementation (amidase [11]; [18]): No
- Asparaginase I Level Based on Growth Medium Supplementation (asparaginase I [1]; [18]): No
Compound: NC(=O)CC[C@H](N)C(=O)O [Glutamine, glutamine]
- Nitrile Hydratase Activity (nitrile hydratase [2]): 173.45 Units/mg cdw
- nitrile hydratase induction compared with acrylonitrile (nitrile hydratase [2]): exceeds the ability of acrylonitrile to induce such activity
- Amidase Activity (amidase [3]): 10.39 Units/mg cdw
- amidase activity greater than that resulting from acrylonitrile (amidase [3]; relative to acrylonitrile as inducer, 1000 ppm): approximately 37%
- Growth [4]: +
- Growth [5]: +
- Growth [6]: −
- Growth [7]: ++
- Growth [8]: ++++
- Growth [9]: ++++
- Nitrile Hydratase Level Based on Growth Medium Supplementation (nitrile hydratase [10]; [13]): 37 Units/mg cdw
- Nitrile Hydratase Level Based on Growth Medium Supplementation (nitrile hydratase [10]; [14]): 0 Units/mg cdw
- Nitrile Hydratase Level Based on Growth Medium Supplementation (nitrile hydratase [10]; [15]): 42 Units/mg cdw
- Nitrile Hydratase Level Based on Growth Medium Supplementation (nitrile hydratase [10]; [16]): 160 Units/mg cdw
- Nitrile Hydratase Level Based on Growth Medium Supplementation (nitrile hydratase [10]; [17]): 135 Units/mg cdw
- Amidase Level Based on Growth Medium Supplementation (amidase [11]; [13]): 0 Units/mg cdw
- Amidase Level Based on Growth Medium Supplementation (amidase [11]; [14]): 0 Units/mg cdw
- Amidase Level Based on Growth Medium Supplementation (amidase [11]; [15]): 14 Units/mg cdw
- Amidase Level Based on Growth Medium Supplementation (amidase [11]; [16]): 6 Units/mg cdw
- Amidase Level Based on Growth Medium Supplementation (amidase [11]; [17]): 7 Units/mg cdw
- Asparaginase I Level Based on Growth Medium Supplementation (asparaginase I [1]; [13]): 20.3 Units/mg cdw
- Asparaginase I Level Based on Growth Medium Supplementation (asparaginase I [1]; [14]): 0 Units/mg cdw
- Asparaginase I Level Based on Growth Medium Supplementation (asparaginase I [1]; [15]): 2 Units/mg cdw
- Asparaginase I Level Based on Growth Medium Supplementation (asparaginase I [1]; [16]): 10 Units/mg cdw
- Asparaginase I Level Based on Growth Medium Supplementation (asparaginase I [1]; [17]): 11.1 Units/mg cdw
- Asparaginase I levels, YEMEA - Glucose With Cobalt (asparaginase I [12]): 1.9 units/mg cell dry weight
- Asparaginase I levels, YEMEA - Glucose Without Cobalt (asparaginase I [12]): 1.5 units/mg cell dry weight
- Asparaginase I levels, YEMEA - Maltose With Cobalt (asparaginase I [12]): 8.1 units/mg cell dry weight
- Asparaginase I levels, YEMEA - Maltose Without Cobalt (asparaginase I [12]): 9.3 units/mg cell dry weight
- ability to induce asparaginase I activity (asparaginase I [12]): showed an ability to induce asparaginase I activity

Compound: CC(C)CC#N [Isovaleronitrile, isovaleronitrile, reference compound]
- Asparaginase I levels, YEMEA - Glucose With Cobalt (asparaginase I [12]): 2.9 units/mg cell dry weight
- Asparaginase I levels, YEMEA - Glucose Without Cobalt (asparaginase I [12]): 3.5 units/mg cell dry weight
- Asparaginase I levels, YEMEA - Maltose With Cobalt (asparaginase I [12]): 7.0 units/mg cell dry weight
- Asparaginase I levels, YEMEA - Maltose Without Cobalt (asparaginase I [12]): 6.8 units/mg cell dry weight

Compound: N#CCCC#N [Succinonitrile, succinonitrile, reference compound]
- Asparaginase I levels, YEMEA - Glucose With Cobalt (asparaginase I [12]): 8.5 units/mg cell dry weight
- Asparaginase I levels, YEMEA - Glucose Without Cobalt (asparaginase I [12]): 6.5 units/mg cell dry weight
- Asparaginase I levels, YEMEA - Maltose With Cobalt (asparaginase I [12]): 10.0 units/mg cell dry weight
- Asparaginase I levels, YEMEA - Maltose Without Cobalt (asparaginase I [12]): 11.0 units/mg cell dry weight
- ability to induce asparaginase I activity (asparaginase I [12]): showed an ability to induce asparaginase I activity
